US20070293517A1, “Derivatives Of Chemotherapeutic Agents With A Formaldehyde Releasing Moiety” (RAMOT AT TEL AVIV UNIVERSITY LTD., priority 2004, published 2007)

Tests used:
HT-29 = test: Proliferation assay, HT-29 cells; format: cell-based, human; conditions: for IC90: HT-29; for IC50: HT-29, HT-29
LS-1034 = test: Proliferation assay, LS-1034 cells; format: cell-based, human; conditions: for IC90: LS-1034; for IC50: LS-1034, LS-1034
Text: (§1) Cells: The human breast cancer cell lines MCF-7 and MCF-7 DX, were obtained from Dr. R. Supino (Laboratorio Oncologia, Milano, Italy); the murine 3LLD122 highly metastatic Lewis lung carcinoma cell line was obtained from Dr. Eisenbach L, the Weizmann Inst., Israel. The following cell lines were purchased from the ATCC, USA: CT-26, an N-nitroso-N-methylurethane-(NNMU) induced murine (BALB-C) colon carcinoma; Panc02, a mouse (C57/Bl) pancreas adenocarcinoma; HT-49, a human colorectal adenocarcinoma; LS1034, a multidrug resistant human colorectal carcinoma; BxPC-3 human pancreas adenocarcinoma; MES-SA and MES-SA-DXS, human uterine sarcoma sensitive and multidrug resistant, respectively; and Human prostate carcinoma 22RV1, a subclone of CWR22 cells.
(§2) The cells were maintained in DMEM growth medium supplemented with 10% heat inactivated fetal calf serum, 2 mM glutamine, penicillin (250 units/ml) and streptomycin (125 μg/ml) in a humidified 5% CO2/air atmosphere at 37° C.
(§3) Proliferation assay: cells at a density of 3-5×10^4 cells/ml in 200 μl medium supplemented with 10% FCS were seeded in tissue culture 96-well plates for 24 hours, and were then exposed for 72 hours to a novel derivative of a chemotherapeutic agent (in quadruplicate) as specified. After 3 days, the cells were rinsed with PBS, and fixed with ethanol (70%) for 30 minutes. The ethanol was thereafter discarded, 200 μl of 10 μg/ml HOECHST fluorescent dye (Sigma) solubilized in PBS were added and the fluorescence was measured at 390-460 nm with a FluoStar fluorometer. MTT solution (10 ml of 5 mg/ml MTT (Sigma) in PBS) was added, and the plate was incubated for 3 hours. Formazan crystals were dissolved with 140 ml of 0.04 HCl-isopropanol. The optical density of the wells was measured with a microplate reader at 540 nm.
(§4) IC50 and IC90 values were determined from the best-fitted curve where the percentages of survival were 50 or 90 respectively.

CT-26 = test: Proliferation assay, CT-26 cells; format: cell-based, murine
Text: as §1, §2, §3, §4

BXPC-3 = test: Proliferation assay, BXPC-3 cells; format: cell-based, human
Text: as §1, §2, §3, §4

Panc 02 = test: Proliferation assay, Panc 02 cells; format: cell-based; conditions: Mus musculus, Panc02
Text: as §1, §2, §3, §4

MES SA = test: Proliferation assay, MES SA cells; format: cell-based, human
Text: as §1, §2, §3, §4

MES SA DXS = test: Proliferation assay, MES SA DXS cells; format: cell-based, human; conditions: MES SA DXS
Text: as §1, §2, §3, §4

[1] = test system: sensitive and resistant uterine cancer cells (MES-SA, MES-SA DXS); test: Proliferation/survival, sensitive and resistant uterine cancer cells (both lines); format: cell-based, human
Text: as §1, §3, §4

[2] = test system: colon cancer cells (LS-1034 and HT-29); test: Survival of colon cancer cells (both lines); format: cell-based, human
Description: Cells: The human breast cancer cell lines MCF-7 and MCF-7 DX, were obtained from Dr. R. Supino (Laboratorio Oncologia, Milano, Italy); the murine 3LLD122 highly metastatic Lewis lung carcinoma cell line was obtained from Dr. Eisenbach L, the Weizmann Inst., Israel. […]
Proliferation assay: cells at a density of 3-5×10^4 cells/ml in 200 μl medium supplemented with 10% FCS were seeded in tissue culture 96-well plates for 24 hours, and were then exposed for 72 hours to a novel derivative of a chemotherapeutic agent (in quadruplicate) as specified. […] The ethanol was thereafter discarded, 200 μl of 10 μg/ml HOECHST fluorescent dye (Sigma) solubilized in PBS were added and the fluorescence was measured at 390-460 nm with a FluoStar fluorometer. […] The optical density of the wells was measured with a microplate reader at 540 nm.
as §4

various cell lines = test: Dose response studies in various cell lines, absence and presence of semicarbazide; format: cell-based; conditions: semicarbazide 0.5 mM
Description: as §3
Semicarbazide sensitive amine oxidase is a source of formaldehyde and is therefore a marker for the effect of formaldehyde. It has been shown that semicarbazide traps formaldehyde and reduces its concentration inside the cell (Nudelman et al. J. Med. Chem., 2005, 48, 1047-1054). Thus, the critical role of formaldehyde can be confirmed by reversal of formaldehyde-mediated effects by the addition of semicarbazide.
Tables 3 and 4 below, as well as FIGS. 7A, 7B and 8A-8D present the dose response studies performed with various cell lines in the absence and presence of semicarbazide, the formaldehyde trapping agent.

[3] = test system: 3LLD122 Lewis lung carcinoma; test: Metastatic lung model (Lewis lung carcinoma); format: in vivo, mice
Description: Metastatic lung model: Female C57/BL mice, 6-10 weeks (Harlan, Israel) were […] implanted (in the tail vein) with 5×10^5 3LLD122 cells. Treatment with a derivative of a chemotherapeutic agent according to the present embodiments, for five days per week, commenced 24 hours post cell implantation. After 21 days the animals were sacrificed and their lung lesions were scored under an illuminated magnifying glass.

[4] = test system: HT-29 human colon carcinoma; test: Xenograft flank colon carcinoma model, HT29; format: in vivo; conditions: nude mice
Description: Xenograft flank colon carcinoma models: Eight weeks old, male CD1 nude mice (Harlan, Israel) were inoculated sc in the flanks with 5×10^6 HT29 or LS1034 cells. When tumor volume reached 50-100 mm^3, treatment with derivatives of chemotherapeutic agents according to the present embodiments commenced and was given by gavage five times a week for the duration of the experiment at the specified doses. Tumor volume (determined by caliper) and body weights were measured twice weekly. Tumor volume was measured (mm) using the formula for an ellipsoid sphere: Length×Width^2/2=Volume (mm)^3 This commonly used formula was also used to calculate tumor weight, assuming unit density (1 mm^3=1 mg). Serum PSA or CEA: […] At the end of the experiment blood samples were drawn from the eyes of mice (anesthetized slightly by inhalation of ether) or from the hearts of sacrificed animals.

[5] = test system: human colon carcinoma cells (LS1034); test: Xenograft flank colon carcinoma model, LS1034; format: in vivo; conditions: nude mice sc implanted with LS1034
Description: Xenograft flank colon carcinoma models: Eight weeks old, male CD1 nude mice (Harlan, Israel) were inoculated sc in the flanks with 5×10^6 HT29 or LS1034 cells. When tumor volume reached 50-100 mm^3, treatment with derivatives of chemotherapeutic agents according to the present embodiments commenced and was given by gavage five times a week for the duration of the experiment at the specified doses. Tumor volume (determined by caliper) and body weights were measured twice weekly. Tumor volume was measured (mm) using the formula for an ellipsoid sphere: Length×Width^2/2=Volume (mm)^3
Survival was estimated by the Kaplan-Meier curves, and the difference in survival between the groups was analyzed by Wilcoxon's test and using a log-rank test chi-square (JMP 5.0.1.2, Chicago, Ill.).

`O=c1c(F)cn([C@H]2CCCO2)c(=O)n1CO` [AN-436, 5-fluoro-1-((R)-tetrahydrofuran-2-yl)-3-(hydroxymethyl)pyrimidine-2,4(1H,3H)-dione] gave an IC90 (HT-29; + SC 500 μM) of 303 ± 7 µM, an IC90 (HT-29; Homo sapiens) of 115 ± 7 µM and an IC50 (HT-29; Homo sapiens) of 67 ± 2 µM. The IC50 (HT-29; Homo sapiens, + SC (semicarbazide) 500 μM) was 164 ± 12 µM, the IC90 (LS-1034; Homo sapiens) was 153 ± 16 µM and the IC50 (LS-1034; Homo sapiens) was 84 ± 8 µM. The IC50 (LS-1034; Homo sapiens, + SC 500 μM) was 132 ± 7 µM, the IC90 (LS-1034; + SC 500 μM) was 252 ± 30 µM and the IC90 (CT-26; CT-26, + SC 500 μM) was 296 ± 28 µM. For the same compound, the IC50 (CT-26; Mus musculus, CT26, CT-26, + SC 500 μM) was 132 ± 26 µM, the IC50 (CT-26; Mus musculus, CT26, CT-26) was 99 ± 5 µM and the IC90 (CT-26; Mus musculus, CT26, CT-26) was 170 ± 9 µM. It also gave an IC50 (BXPC-3; + SC 500 μM) of 160 ± 17 µM, an IC90 (BXPC-3; + SC 500 μM) of 460 ± 78 µM and an IC50 (BXPC-3; Homo sapiens) of 81 ± 9 µM. For the same compound, the IC90 (BXPC-3; Homo sapiens) was 191 ± 47 µM, the IC50 (Panc 02) was 96 ± 9 µM and the IC90 (Panc 02) was 219 ± 25 µM. For the same compound, the IC50 (MES SA; + SC 500 μM) was 182 ± 18 µM, the IC90 (MES SA; + SC 500 μM) was 456 ± 189 µM and the IC50 (MES SA; Homo sapiens) was 71 ± 12 µM. For the same compound, the IC90 (MES SA; Homo sapiens) was 127 ± 19 µM, the IC50 (MES SA DXS; Homo sapiens) was 63 ± 4 µM and the IC90 (MES SA DXS; Homo sapiens) was 101 ± 2 µM. The IC50 (MES SA DXS; + SC 500 μM) was 203 ± 75 µM, the IC90 (MES SA DXS; + SC 500 μM) was 356 ± 144 µM and the “maximal cell killing achieved” value [1] was 100%. For the same compound, the “fold more potent than tegafur, based on IC50 values” [2] was no less than 2.5 fold, the “reduction of cell killing by co-treatment with semicarbazide” value (various cell lines) was “up to 3.5 folds” and the “antimetastatic activity (number of lung lesions)” value [3] was “significantly evident”. For the same compound, the “CEA level in serum” value [4] was “reduced the level significantly”, the tumor growth inhibition ([4]; P<<0.001) was “substantially inhibited tumor growth” and the “inhibitory effect on tumor growth compared with tegafur” value ([4]; p<0.05) was “significantly higher than the parent compound”. The “survival after 82 days” value [5] was 75%.
